Test results taken from patent US12581252B2, “Substituted pyrrolo[3,4-b]pyridines as PI3K-α inhibitors” (Relay Therapeutics, Inc., priority 2020, dated 2026).

Each compound was assayed against H1047R PIK3CA enzyme (Homo sapiens, UniProt P42336, H1047R) (assay: ADP-Glo Biochemical PIK3CA Kinase Assay).
Sequence of H1047R PIK3CA enzyme (P42336 whole entry H1047R): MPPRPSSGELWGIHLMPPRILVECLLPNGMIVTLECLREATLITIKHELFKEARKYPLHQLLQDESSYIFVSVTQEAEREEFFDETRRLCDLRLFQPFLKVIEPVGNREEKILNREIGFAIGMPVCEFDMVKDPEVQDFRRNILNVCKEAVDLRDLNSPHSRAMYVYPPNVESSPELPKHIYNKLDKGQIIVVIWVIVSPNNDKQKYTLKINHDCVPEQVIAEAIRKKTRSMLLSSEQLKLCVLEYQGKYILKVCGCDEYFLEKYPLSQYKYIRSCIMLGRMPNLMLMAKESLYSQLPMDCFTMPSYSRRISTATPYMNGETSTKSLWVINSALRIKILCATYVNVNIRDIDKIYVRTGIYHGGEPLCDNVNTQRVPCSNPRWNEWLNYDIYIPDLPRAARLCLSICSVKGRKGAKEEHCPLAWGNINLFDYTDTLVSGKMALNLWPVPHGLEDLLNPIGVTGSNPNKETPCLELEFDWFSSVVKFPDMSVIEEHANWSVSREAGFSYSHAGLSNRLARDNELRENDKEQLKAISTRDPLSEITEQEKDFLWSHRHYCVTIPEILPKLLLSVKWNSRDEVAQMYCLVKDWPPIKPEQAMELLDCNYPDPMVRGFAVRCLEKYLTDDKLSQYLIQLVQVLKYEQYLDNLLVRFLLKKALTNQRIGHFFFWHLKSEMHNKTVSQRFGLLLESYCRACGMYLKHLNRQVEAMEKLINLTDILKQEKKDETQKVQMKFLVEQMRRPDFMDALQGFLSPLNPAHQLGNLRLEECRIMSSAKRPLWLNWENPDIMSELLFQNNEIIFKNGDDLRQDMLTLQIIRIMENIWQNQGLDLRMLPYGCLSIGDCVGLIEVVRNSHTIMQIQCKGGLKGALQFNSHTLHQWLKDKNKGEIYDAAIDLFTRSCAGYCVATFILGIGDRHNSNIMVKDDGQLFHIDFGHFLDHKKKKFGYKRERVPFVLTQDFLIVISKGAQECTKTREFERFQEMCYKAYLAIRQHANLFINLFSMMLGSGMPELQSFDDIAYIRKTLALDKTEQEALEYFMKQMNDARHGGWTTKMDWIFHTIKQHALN
Sequence of H1047R PIK3CA enzyme (P27986 whole entry partner): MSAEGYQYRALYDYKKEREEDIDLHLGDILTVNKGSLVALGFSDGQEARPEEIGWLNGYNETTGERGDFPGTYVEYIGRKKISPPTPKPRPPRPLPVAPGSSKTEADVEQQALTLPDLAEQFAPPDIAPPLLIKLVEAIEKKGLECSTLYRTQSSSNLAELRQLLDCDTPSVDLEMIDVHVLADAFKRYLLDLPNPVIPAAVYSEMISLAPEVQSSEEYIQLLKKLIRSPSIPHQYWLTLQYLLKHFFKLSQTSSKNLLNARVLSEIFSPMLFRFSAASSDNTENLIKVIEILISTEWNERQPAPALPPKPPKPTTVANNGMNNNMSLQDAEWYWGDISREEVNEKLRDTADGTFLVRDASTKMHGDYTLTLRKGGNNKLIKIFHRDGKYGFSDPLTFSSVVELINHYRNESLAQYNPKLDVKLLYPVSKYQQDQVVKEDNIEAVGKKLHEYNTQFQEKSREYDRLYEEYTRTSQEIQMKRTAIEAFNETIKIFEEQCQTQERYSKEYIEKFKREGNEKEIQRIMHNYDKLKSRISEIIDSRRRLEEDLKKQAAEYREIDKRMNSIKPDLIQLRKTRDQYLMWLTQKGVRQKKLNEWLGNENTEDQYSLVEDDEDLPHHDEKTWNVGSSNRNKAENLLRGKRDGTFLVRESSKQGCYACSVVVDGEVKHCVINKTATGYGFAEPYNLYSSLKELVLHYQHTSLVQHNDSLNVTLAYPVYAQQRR

Compared with O=C(Nc1cc(Br)cc2c1C(c1cc(F)ccc1Cl)NC2=O)c1ccc(F)c(C(F)(F)F)c1 (stereo not shown) [Compound I-566], O=C(Nc1cc(Br)cc2c1C(c1cc(F)ccc1Cl)NC2=O)c1ccc(F)c(OC(F)F)c1 (stereo not shown) [Compound I-558] is higher in IC50: 500 to 1000 nM for the first, 1000 to 10000 nM for the second. The first is the more potent here.

O=C(Nc1cc(-c2cnn3ncnc3c2)cc2c1[C@@H](c1cc(F)ccc1Cl)NC2=O)c1cc(F)cc(C(F)(F)F)c1 [Compound I-1871] and O=C(Nc1cc(-c2ccn3ccnc3c2)cc2c1[C@@H](c1cc(F)ccc1Cl)NC2=O)c1cc(F)cc(C(F)(F)F)c1 [Compound I-1451] fall in the same range of IC50: 100 to 500 nM for the first, 100 to 500 nM for the second.

First: O=C1NC(c2cc(F)ccc2Cl)c2c(NC(=O)C3(c4cccc(F)c4)CCCC3)cc(Br)cc21 (stereo not shown) [Compound I-1638]
Second: O=C1NC(c2cc(F)ccc2Cl)c2c(NC(=O)N3CCc4cc(F)ccc43)cc(Br)cc21 (stereo not shown) [Compound I-1270]
The IC50 of the first is higher: 10000 to 100000 nM for the first, at most 100 nM for the second. The second is the more potent here.

Compared with C[C@@]1(O)CN(C(=O)Nc2cc(Br)cc3c2C(c2cc(F)ccc2Cl)NC3=O)c2ccccc21 (single isomer, unassigned) [Compound I-1511], O=C1N[C@@H](c2cc(F)ccc2Cl)c2c(NC(=O)N3C[C@](O)(C(F)(F)F)c4ccccc43)cccc21 (single isomer, unassigned) [Compound I-2384] is higher in IC50: at most 100 nM for the first, 1000 to 10000 nM for the second. The first is the more potent here.

Compared with O=C1NC(c2cnccc2Cl)c2c(NC(=O)c3nsc4ccccc34)cccc21 (stereo not shown) [Compound I-160], Cc1ccccc1C1NC(=O)c2cccc(NC(=O)c3nnc4ccc(Cl)cn34)c21 (stereo not shown) [Compound I-400] is higher in IC50: 500 to 1000 nM for the first, 10000 to 100000 nM for the second.

CC[C@@H](CC(=O)Nc1cccc2c1[C@@H](c1cc(F)ccc1Cl)NC2=O)[C@H](C)C(F)(F)F (single isomer, unassigned) [Compound I-2337] and O=C(Nc1cccc2c1C(c1cc(F)ccc1Cl)NC2=O)c1cc(F)cc(B(O)O)c1 (stereo not shown) [Compound I-2087] fall in the same range of IC50: 10000 to 100000 nM for the first, 10000 to 100000 nM for the second.

First: Cc1ccccc1[C@@H]1NC(=O)c2nccc(NC(=O)N3CCc4c(F)cc(F)cc43)c21 [Compound I-229]
Second: Cc1ccccc1C1NC(=O)c2cccc(NC(=O)c3cc(F)cc(C(F)(F)F)c3)c21 (stereo not shown) [Compound I-2]
The IC50 of the first is higher: 500 to 1000 nM for the first, 100 to 500 nM for the second. The second is the more potent here.

First: N#C[C@@H]1CCN(C(=O)Nc2cc(-c3ccc4ncnn4c3)cc3c2C(c2cc(F)ccc2Cl)NC3=O)C1 (mixture of isomers) [Compound I-2416]
Second: O=C1NC(c2cc(F)ccc2Cl)c2c(NC(=O)C3CCCC(F)C3)cc(-c3ccc4ncnn4c3)cc21 (stereo not shown) [Compound I-1957]
The IC50 of the first is higher: 10000 to 100000 nM for the first, 1000 to 10000 nM for the second. The second is the more potent here.

O=C(Nc1cc(-c2ccc3nc(Cl)nn3c2)cc2c1C(c1cc(F)ccc1Cl)NC2=O)c1cc(F)cc(C(F)(F)F)c1 (stereo not shown) [Compound I-1575] and O=C(Nc1cc(-c2ccc3ncc(F)n3c2)cc2c1C(c1cc(F)ccc1Cl)NC2=O)c1cc(F)cc(C(F)(F)F)c1 (stereo not shown) [Compound I-1793] cannot be ordered by IC50: at most 100 nM for the first, at most 100 nM for the second.

Cc1ccccc1C1NC(=O)c2cncc(NC(=O)c3cc(F)cc(C(F)(F)F)c3)c21 (stereo not shown) [Compound I-233] and O=C(Nc1cncc2c1C(c1cc(F)ccc1Cl)NC2=O)c1cc(F)cc(C(F)(F)F)c1 (stereo not shown) [Compound I-553] cannot be ordered by IC50: 100 to 500 nM for the first, at most 100 nM for the second.

O=C(Nc1ccccc1)Nc1cc(Br)cc2c1[C@H](c1cc(F)ccc1Cl)NC2=O (stereo in doubt) [Compound I-1945] and COc1cc(C)c(C(=O)Nc2cc(Br)cc3c2C(c2cc(F)ccc2Cl)NC3=O)cn1 (stereo not shown) [Compound I-850] fall in the same range of IC50: 10000 to 100000 nM for the first, 10000 to 100000 nM for the second.

Cc1ccccc1C1NC(=O)Oc2cccc(Br)c21 (stereo not shown) [Compound I-10] and Cc1ccccc1C1NC(=O)c2cccc(NC(=O)c3nnc4ccccn34)c21 (stereo not shown) [Compound I-328, N-(1-oxo-3-(o-tolyl)isoindolin-4-yl)-[1,2,4]triazolo[4,3-a]pyridine-3-carboxamide] fall in the same range of IC50: 10000 to 100000 nM for the first, 10000 to 100000 nM for the second.

First: COc1c(F)cc(Cl)cc1C(=O)Nc1cc(Br)cc2c1C(c1cc(F)ccc1Cl)NC2=O (stereo not shown) [Compound I-858]
Second: O=C(Nc1cc(Br)cc2c1[C@H](c1cccc(F)c1Cl)NC2=O)c1cc(F)cc(C(F)(F)F)c1 [Compound I-669]
The IC50 of the first is higher: 1000 to 10000 nM for the first, at most 100 nM for the second.

CNS(=O)(=O)c1cc(-c2ccc3ncnn3c2)cc2c1C(c1cc(F)ccc1Cl)NC2=O (stereo not shown) [Compound I-1977] and O=C1NC(c2cc(F)ccc2Cl)c2c(NC(=O)C3COCCN3)cc(-c3ccc4ncnn4c3)cc21 (mixture of isomers) [Compound I-1991] fall in the same range of IC50: 10000 to 100000 nM for the first, 10000 to 100000 nM for the second.

First: O=C(Nc1cc(-c2ccc3nc(Cl)nn3c2)cc2c1C(c1cc(F)ccc1Cl)NC2=O)c1cc(F)cc(C(F)(F)F)c1 (stereo not shown) [Compound I-1573]
Second: O=C(Nc1cc(-c2ccc3ncnn3c2)cc2c1[C@@H](c1cc(F)ccc1Cl)NC2=O)c1cc(F)cc(Cl)c1 (stereo in doubt) [Compound I-1166]
The IC50 of the first is lower: at most 100 nM for the first, 1000 to 10000 nM for the second.

O=C(Nc1cc(CS(=O)(=O)N2CCOCC2)cc2c1[C@H](c1cc(F)ccc1Cl)NC2=O)c1cc(F)cc(C(F)(F)F)c1 [Compound I-1485] and Cc1ccccc1S(=O)(=O)Cc1cc(NC(=O)c2cc(F)cc(C(F)(F)F)c2)c2c(c1)C(=O)NC2c1cc(F)ccc1Cl (stereo not shown) [Compound I-1433] cannot be ordered by IC50: at most 100 nM for the first, at most 100 nM for the second.

First: N#CCOc1cc(NC(=O)c2cc(F)cc(C(F)(F)F)c2)c2c(c1)C(=O)N[C@@H]2c1cc(F)ccc1Cl [Compound I-1887]
Second: Cn1ncnc1COc1cc(NC(=O)c2cc(F)cc(C(F)(F)F)c2)c2c(c1)C(=O)NC2c1cc(F)ccc1Cl (stereo not shown) [Compound I-1221]
The IC50 of the first is higher: 500 to 1000 nM for the first, at most 100 nM for the second.

O=C(Nc1cc(NC2CCC(O)C2)cc2c1C(c1cc(F)ccc1Cl)NC2=O)c1cc(F)cc(C(F)(F)F)c1 (stereo not shown) [Compound I-359] and CC(C)(C(=O)O)c1cc(NC(=O)c2cc(F)cc(C(F)(F)F)c2)c2c(c1)C(=O)NC2c1cc(F)ccc1Cl (stereo not shown) [Compound I-427] cannot be ordered by IC50: at most 100 nM for the first, 100 to 500 nM for the second.

First: O=C1N[C@H](c2cc(F)ccc2Cl)c2c(NC(=O)N3C[C@H](O)c4cc(F)ccc43)cccc21 (single isomer, unassigned) [Compound I-2128]
Second: O=C1N[C@@H](c2cc(F)ccc2Cl)c2c(NC(=O)N3C[C@@](O)(C(F)(F)F)c4cc(F)ccc43)ccc(-n3nccn3)c21 (single isomer, unassigned) [Compound I-2527]
The IC50 of the first is higher: 10000 to 100000 nM for the first, 1000 to 10000 nM for the second. The second is the more potent here.

CN1C[C@H](COc2cc(NC(=O)c3cc(F)cc(C(F)(F)F)c3)c3c(c2)C(=O)N[C@@H]3c2cc(F)ccc2Cl)CC1=O (single isomer, unassigned) [Compound I-1521] and O=C(Nc1cc(-c2cn3cc(C(F)F)nc3cn2)cc2c1C(c1cc(F)ccc1Cl)NC2=O)c1cc(F)cc(C(F)(F)F)c1 (stereo not shown) [Compound I-2065] cannot be ordered by IC50: at most 100 nM for the first, at most 100 nM for the second.

Compared with CN1CCCC(C2NC(=O)c3cccc(NC(=O)c4cc(F)cc(C(F)(F)F)c4)c32)C1 (racemic) [Compound I-1769], O=C(Nc1cccc2c1[C@H](CC1CCCCC1)NC2=O)c1cc(F)cc(C(F)(F)F)c1 [Compound I-2058] is lower in IC50: 10000 to 100000 nM for the first, 500 to 1000 nM for the second.

First: O=C1NC(CO)(c2cccc(F)c2)c2c1cccc2-c1nc2cc(C(F)(F)F)cc(F)c2[nH]1 (stereo not shown) [Compound I-2296]
Second: O=C(Nc1cc(-c2ccc3ncnn3c2)c(-c2ccc3ncnn3c2)c2c1C(c1cc(F)ccc1Cl)NC2=O)c1cc(F)cc(C(F)(F)F)c1 (stereo not shown) [Compound I-1802]
The IC50 of the first is higher: 1000 to 10000 nM for the first, 100 to 500 nM for the second.

NC1CCCCC1C(=O)Nc1cc(-c2ccc3ncnn3c2)cc2c1C(c1cc(F)ccc1Cl)NC2=O (stereo not shown) [Compound I-1982] and O=C1NC(c2cc(F)ccc2Cl)c2c(C#Cc3ccccc3)cccc21 (stereo not shown) [Compound I-2097] fall in the same range of IC50: 10000 to 100000 nM for the first, 10000 to 100000 nM for the second.
